Test results published in patent US20170368082A1, “FORMULATIONS OF BRINCIDOFOVIR” (priority 2016, published 2017).
Converted amounts (≈) assume the structure as drawn.

What was measured:
[1] = Brincidofovir equilibrium solubility in formulation vehicles; assay type: physicochemical
Experimental: The recovery of brincidofovir in the sample supernatant was determined at different time points to establish when the solubility equilibrium was reached. Two samples of vehicle #57, were saturated with brincidofovir. […] Consequently, the pH had to be brought up close to the target pH before more brincidofovir was added.

[2] = Clinical infusion system compatibility; assay type: physicochemical
Experimental: The testing procedure can be summarized as follows: • 1. […] The tested infusion system was attached to the infusion bag and manually filled with solution from the infusion bag. Approximately 1 mL (triplicates) of the testing solution was collected as an end-of-line sample for analysis (t0, eol). • 4. The testing infusion system was shut off, and stored at ambient conditions until the next time point. […] B Braun, Rate Flow® regulator IV set). […] The infusion systems were then attached to the infusion bag and manually filled with solution from the infusion bag. Aliquots were collected as an end-of-line sample for analysis (t0, eol). The IV lines were closed between time points with the infusate resting within the infusion system and stored at ambient temperature. At testing time points, approximately 17 mL (approx. volume of the IV system) of infusate solution were drained, which led to a replacement of the solution in the IV system from the bag reservoir. Following this replacement, another end-of-line sample was collected for the assessments (t10 min, eol, t3 h, eol, and t6 h, eol). The samples were evaluated for appearance, pH, and brincidofovir recovery.

[3] = Plasma BCV PK following single dose oral tablet administration (Table 105); assay type: in vivo; conditions: human; for AUC(0-inf) / Cmax: plasma, po
rat whole blood = assay: Hemolytic potential, cyanmethemoglobin method, rat whole blood; assay type: cell-based; conditions: for Estimated % Hemolysis: based on normal rat hemoglobin 13 g/dL; for Mean HgB Concentration: interference control, Phase 1
Experimental: Each concentration of test item for the rat was mixed separately in a 1:4 ratio with rat whole blood while each concentration of test item for the human was mixed separately in a 1:4 ratio with human whole blood. These samples plus control samples [vehicle control (vehicle+whole blood, 1 for rat and 1 for humans), positive control (1% Saponin+whole blood), untreated whole blood control and negative control (saline+whole blood) were analyzed for hemolysis (supernatant hemoglobin concentration).
(§1) The rat and human whole blood samples were incubated in test or control items at 37±1° C. for 20 minutes and then immediately (within 2 minutes) centrifuged at 3500±100 rpm (2740 g) at room temperature for 5-10 minutes. The supernatant was extracted and subjected to a hemoglobin analysis using the cyanmethemoglobin method employed on the Siemens Advia 120 hematology analyzer. If the test item has a potential for causing hemolysis, then hemoglobin released from lysed red blood cells into the plasma supernatant can be quantified via the reaction of heme iron in solution being oxidized from a ferrous to a ferric state in the presence of potassium cyanide. The reaction results in the formation of methemoglobin, which then combines with cyanide to form a stable cyanmethemoglobin. When measured spectrophotometrically at 546 nm the absorbance of cyanmethemoglobin follows Beer's Law and is directly proportional to the concentration of hemoglobin released into solution.
as §1, with “Without wishing to be bound by theory, if” for “If”

[4] = B. Braun, 0.1 mg/mL, t10 min, eol
[5] = B. Braun, 1.0 mg/mL, t10 min, eol
[6] = Baxter, 0.1 mg/mL, t10 min, eol
[7] = Baxter, 1.0 mg/mL, t10 min, eol
[8] = 100 mg, 100 mg Oral Tablet, N = 52, geometric mean
[9] = 200 mg, 200 mg Oral Tablet, N = 15, geometric mean
[10] = 200 mg, 200 mg Oral Tablet, N = 63, geometric mean
[11] = 350 mg, 350 mg Oral Tablet, N = 70, geometric mean

With `CCCCCCCCCCCCCCCCOCCCOP(=O)(O)CO[C@H](CO)Cn1ccc(N)nc1=O` [Brincidofovir] the solubility thermodynamic ([1]; pH 6.9, thermodynamic from solid) was about 25 mg/mL (≈ 44.5 mM), the solubility thermodynamic ([1]; pH 8, thermodynamic from solid) was over 270 mg/mL and the Appearance ([2]; B. Braun, 0.1 mg/mL, t0, bag) was “Clear, colorless”. For the same molecule, the “Measured pH” value ([2]; B. Braun, 0.1 mg/mL, t0, bag) was 7.8, the “Observed c(BCV)” value ([2]; B. Braun, 0.1 mg/mL, t0, bag) was 0.091 mg/mL and the Appearance ([2]; B. Braun, 0.1 mg/mL, t0, eol) was “Clear, colorless”. The “Measured pH” value ([2]; B. Braun, 0.1 mg/mL, t0, eol) was 7.7, the “Observed c(BCV)” value ([2]; B. Braun, 0.1 mg/mL, t0, eol) was 0.086 mg/mL and the Appearance [2, 4] was “Clear, colorless”. For the same molecule, the “Measured pH” value [2, 4] was 7.7, the “Observed c(BCV)” value [2, 4] was 0.091 mg/mL and the Appearance ([2]; B. Braun, 0.1 mg/mL, t3 h, eol) was “Clear, colorless”. For the same molecule, the “Measured pH” value ([2]; B. Braun, 0.1 mg/mL, t3 h, eol) was 7.7, the “Observed c(BCV)” value ([2]; B. Braun, 0.1 mg/mL, t3 h, eol) was 0.090 mg/mL and the Appearance ([2]; B. Braun, 0.1 mg/mL, t6 h, eol) was “Clear, colorless”. The “Measured pH” value ([2]; B. Braun, 0.1 mg/mL, t6 h, eol) was 7.7, the “Observed c(BCV)” value ([2]; B. Braun, 0.1 mg/mL, t6 h, eol) was 0.091 mg/mL and the “Observed c(BCV)” value ([2]; B. Braun, 0.1 mg/mL, t−24 h, bag) was 0.090 mg/mL. The Appearance ([2]; B. Braun, 1.0 mg/mL, t0, bag) was “Clear, colorless”, the “Measured pH” value ([2]; B. Braun, 1.0 mg/mL, t0, bag) was 8.1 and the “Observed c(BCV)” value ([2]; B. Braun, 1.0 mg/mL, t0, bag) was 0.86 mg/mL. For the same molecule, the Appearance ([2]; B. Braun, 1.0 mg/mL, t0, eol) was “Clear, colorless”, the “Measured pH” value ([2]; B. Braun, 1.0 mg/mL, t0, eol) was 8.1 and the “Observed c(BCV)” value ([2]; B. Braun, 1.0 mg/mL, t0, eol) was 0.86 mg/mL. The Appearance [2, 5] was “Clear, colorless”, the “Measured pH” value [2, 5] was 8.1 and the “Observed c(BCV)” value [2, 5] was 0.86 mg/mL. The Appearance ([2]; B. Braun, 1.0 mg/mL, t3 h, eol) was “Clear, colorless”, the “Measured pH” value ([2]; B. Braun, 1.0 mg/mL, t3 h, eol) was 8.1 and the “Observed c(BCV)” value ([2]; B. Braun, 1.0 mg/mL, t3 h, eol) was 0.86 mg/mL. The Appearance ([2]; B. Braun, 1.0 mg/mL, t6 h, eol) was “Clear, colorless”, the “Measured pH” value ([2]; B. Braun, 1.0 mg/mL, t6 h, eol) was 8.1 and the “Observed c(BCV)” value ([2]; B. Braun, 1.0 mg/mL, t6 h, eol) was 0.86 mg/mL. The “Observed c(BCV)” value ([2]; B. Braun, 1.0 mg/mL, t−24 h, bag) was 0.86 mg/mL, the Appearance ([2]; Baxter, 0.1 mg/mL, t0, bag) was “Clear, colorless” and the “Measured pH” value ([2]; Baxter, 0.1 mg/mL, t0, bag) was 7.7. The “Observed c(BCV)” value ([2]; Baxter, 0.1 mg/mL, t0, bag) was 0.091 mg/mL, the Appearance ([2]; Baxter, 0.1 mg/mL, t0, eol) was “Clear, colorless” and the “Measured pH” value ([2]; Baxter, 0.1 mg/mL, t0, eol) was 7.7. The “Observed c(BCV)” value ([2]; Baxter, 0.1 mg/mL, t0, eol) was 0.088 mg/mL, the Appearance [2, 6] was “Clear, colorless” and the “Measured pH” value [2, 6] was 7.7. The “Observed c(BCV)” value [2, 6] was 0.092 mg/mL, the Appearance ([2]; Baxter, 0.1 mg/mL, t3 h, eol) was “Clear, colorless” and the “Measured pH” value ([2]; Baxter, 0.1 mg/mL, t3 h, eol) was 7.7. The “Observed c(BCV)” value ([2]; Baxter, 0.1 mg/mL, t3 h, eol) was 0.091 mg/mL, the Appearance ([2]; Baxter, 0.1 mg/mL, t6 h, eol) was “Clear, colorless” and the “Measured pH” value ([2]; Baxter, 0.1 mg/mL, t6 h, eol) was 7.7. The “Observed c(BCV)” value ([2]; Baxter, 0.1 mg/mL, t6 h, eol) was 0.092 mg/mL, the “Observed c(BCV)” value ([2]; Baxter, 0.1 mg/mL, t−24 h, bag) was 0.090 mg/mL and the Appearance ([2]; Baxter, 1.0 mg/mL, t0, bag) was “Clear, colorless”. For the same molecule, the “Measured pH” value ([2]; Baxter, 1.0 mg/mL, t0, bag) was 8.1, the “Observed c(BCV)” value ([2]; Baxter, 1.0 mg/mL, t0, bag) was 0.86 mg/mL and the Appearance ([2]; Baxter, 1.0 mg/mL, t0, eol) was “Clear, colorless”. The “Measured pH” value ([2]; Baxter, 1.0 mg/mL, t0, eol) was 8.1, the “Observed c(BCV)” value ([2]; Baxter, 1.0 mg/mL, t0, eol) was 0.85 mg/mL and the Appearance [2, 7] was “Clear, colorless”. The “Measured pH” value [2, 7] was 8.1, the “Observed c(BCV)” value [2, 7] was 0.86 mg/mL and the Appearance ([2]; Baxter, 1.0 mg/mL, t3 h, eol) was “Clear, colorless”. For the same molecule, the “Measured pH” value ([2]; Baxter, 1.0 mg/mL, t3 h, eol) was 8.1, the “Observed c(BCV)” value ([2]; Baxter, 1.0 mg/mL, t3 h, eol) was 0.86 mg/mL and the Appearance ([2]; Baxter, 1.0 mg/mL, t6 h, eol) was “Clear, colorless”. For the same molecule, the “Measured pH” value ([2]; Baxter, 1.0 mg/mL, t6 h, eol) was 8.1, the “Observed c(BCV)” value ([2]; Baxter, 1.0 mg/mL, t6 h, eol) was 0.86 mg/mL and the “Observed c(BCV)” value ([2]; Baxter, 1.0 mg/mL, t−24 h, bag) was 0.85 mg/mL. For the same molecule, the half-life ([3]; 100 mg Oral Tablet, N = 52, geometric mean) was 7.62 h, the half-life ([3]; 200 mg Oral Tablet, N = 15, geometric mean) was 12 h and the AUC(0-inf) [3, 8] was 1380 ng·h/mL. The Cmax [3, 8] was 258 ng/mL, the AUC(0-inf) [3, 9] was 3310 ng·h/mL and the Cmax [3, 9] was 622 ng/mL. It also gave an AUC(0-inf) [3, 10] of 3740 ng·h/mL, a Cmax [3, 10] of 802 ng/mL and an AUC(0-inf) [3, 11] of 6940 ng·h/mL. For the same molecule, the Cmax [3, 11] was 1480 ng/mL, the “Brincidofovir concentration with in vitro evidence of hemolysis” value (rat whole blood) was “above 0.75 mg/mL” and the Hemolysis classification (rat whole blood; 0.2 mg/mL) was “non-hemolytic (Formulations with a hemolysis value of <10% are considered to be non-hemolytic)”. The Calculated % hemolysis (rat whole blood; 0.5 mg/mL ([…])) was 2.4%, the Calculated % hemolysis (rat whole blood; 1.6 mg/mL ([…])) was 13.0% and the Hemolysis classification (rat whole blood; 0.5 and 1.6 mg/mL) was “not considered a hemolytic risk”. For the same molecule, the “Estimated % Hemolysis” value (rat whole blood; Tube 1B: Test Item (0.5 mg/mL) + rat whole blood) was 2.4%, the “Estimated % Hemolysis” value (rat whole blood; Tube 1C: Test Item (1.6 mg/mL) + rat whole blood) was 13.0% and the “Mean HgB Concentration” value (rat whole blood; Tube 2A: Test Item (0.2 mg/mL) + saline) was 0.0 g/dL. For the same molecule, the “Mean HgB Concentration” value (rat whole blood; Tube 2B: Test Item (0.5 mg/mL) + saline) was 0.0 g/dL and the “Mean HgB Concentration” value (rat whole blood; Tube 2C: Test Item (1.6 mg/mL) + saline) was 0.0 g/dL.
